Laboratory results taken from patent US5894021A, “Iontophoretic transdermal drug-delivery interface and skin treatment agent and treatment method using the same” (Kabushiki Kaisya Advance, priority 1994, dated 1999).

Legend:
[1] = Prevention test of skin adsorption of drug: nonabsorbed calcitonin in solution on excised rat skin (Example 2), HPLC; format: in vitro ADME, male hairless rats; settings: after one hour, 2 μg/ml calcitonin, 60 min
Description: The stomach skin of male hairless rats of 13 weeks age were sheared by electric shears, then lightly rubbed and disinfected by absorbent cotton containing an aqueous solution of 70% ethanol. The skin was separated by scissors, then placed on a paper towel moistened with physiological saline with the epidermal side facing up. An acrylic chamber cup (18 mm diameter and 20 mm height) was immersed for 5 minutes in a silicone coating and an aqueous solution of 1% benzalkonium chloride, then was fully rinsed and washed by distilled water. The acrylic chamber cup was adhered to the skin by medicinal adhesive and dried, then filled with 2 ml of an aqueous solution of 1% benzalkonium chloride (Group 2)or distilled water as a control (Group 1) and allowed to stand for 5 minutes. The solution was removed then the cup was fully rinsed and washed by distilled water. As one example of the polypeptide drug, a solution of 2 μg/ml of calcitonin (synthetic salmon calcitonin made by Sigma Co.) in distilled water was prepared. A 2 ml amount each were added to two acrylic chamber cups treated as explained above which were then allowed to stand. Amounts of 100 μl each were sampled after 1, 2, and 6 hours and the amount of nonabsorbed calcitonin in the solution was measured by high pressure liquid chromatography.

[2] = test system: calcium value in the rat serum; assay: Transdermal iontophoretic administration of calcitonin in rats after skin cleaning (Example 3), serum calcium; format: in vivo, male SD rats; settings: 0.04 μg per sheet, 6 V, 30 kHz, 30% duty, 45 minutes
Description: Under pentobarbital anesthesia, 7 week old male SD rats had their stomach skin sheared by electric shears and shaved by a shaver, then absorbent cotton containing an aqueous solution of 70% by weight ethanol (Group 3) or absorbent cotton containing an aqueous solution of 70% by weight ethanol plus 0.01% benzalkonium chloride (Group 4) was used to lightly rub and disinfect the areas. Calcitonin dried and held in an amount of 0.04 μg per sheet of drug film (synthetic salmon calcitonin made by Sigma Co.) was dissolved in an aqueous solution at the time of use and used for one rat. The conditions of conductance of power in the iontophoresis were a depolarization type constant voltage high duty pulse of 6 V, 30 kHz, and 30% duty applied for 45 minutes. The blood was sampled after a predetermined time from the jugular vein and was centrifugally separated at 12,000 rpm for 5 minutes. The supernatant was used as the serum sample. The calcium in the blood was measured by the o-cresol phthalein complex method (Calcium C Test Wako made by Wako Pure Chemical Industries, Ltd.).

[3] = test system: calcium value in the rat serum; assay: Transdermal iontophoretic administration of calcitonin in rats with benzalkonium chloride-treated or nontreated nylon porous film (Example 1), serum calcium; format: in vivo, SD male rats; settings: 2 IU (0.4 μg) per sheet, 6 V, 30 kHz, 30% duty, 45 minutes
From the text: These drug holding members, that is, the ion exchange membrane (4), nonwoven fabric (5), and nylon porous member (6) (in this case the holding including at least contact with a drug contact member also acceptable) are coated or impregnated uniformly by an aqueous solution of 0.01% benzalkonium chloride or else immersed in an aqueous solution of the same for treatment, then stripped of water and dried. Of the thus obtained AC-220 membrane, nonwoven fabric, and nylon porous member, the skin contact surface of the nylon porous member has deposited on it a bioactive peptide by a means such as spray coating or impregnation followed by drying for retention. The portion of the nylon porous member (6) coming into contact with the live skin has the drug (11) affixed to it. At the edges of the nylon porous member (6) and under the support (10) are for example disposed an adhesive tape (8) composed of Blenderm® (made by 3M Health Care Ltd.).
Method: Under pentobarbital anesthesia, 7 week old SD male rats had their stomach skin sheared by electric shears and shaved by a shaver, then absorbent cotton containing an aqueous solution of 70% by weight ethanol was used to lightly rub and disinfect the area. […] The serum calcium was measured by the o-cresol phthalein complex method (Calcium C Test Wako made by Wako Pure Chemical Industries, Ltd.).

Substance: calcitonin
- amount of calcitonin in the aqueous solution in terms of the initially prepared concentration ([1]; skin washed with 1% benzalkonium chloride (Group 2)): approximately 60%
- amount of calcitonin in the aqueous solution in terms of the initially prepared concentration ([1]; skin washed with just distilled water (Group 1)): approximately 30%
- maximum reduction in the calcium value in rat serum ([2]; skin cleaned by 70% by weight ethanol containing 0.01% benzalkonium chloride (Group 4)): about 30%
- maximum reduction in the calcium value in the rat serum ([2]; skin cleaned by 70% ethanol alone (Group 3)): approximately 13%
- maximum reduction in the calcium value in the rat serum ([3]; nylon porous film not coated with surfactant (nontreated group)): approximately 17%
- maximum reduction in the calcium value in the rat serum ([3]; nylon porous film treated by benzalkonium chloride (treated group)): 28%
